Data taken from patent US6437138B1, “3-pyridyloxymethyl heterocyclic ether compounds useful in controlling chemical synaptic transmission” (priority 1996, dated 2002).
Where a name gives a salt, the structure may show the parent alone.

melting point	SMILES
78 to 79 °C	CN1CC[C@H]1COc1cnc(Cl)c(-c2ccc(Cl)cc2)c1 (as salt: citrate) [Example 143, 6-Chloro-5-(4-chlorophenyl)-3-(1-methyl-2-(S)-azetidialmethoxy)pyridine Citrate]
88 to 90 °C	CCCCCCC#Cc1cncc(OC[C@@H]2CCN2)c1 (as salt: hydrochloride) [Example 63, 5-Octynyl-3-(2-(S)-azetidinylmethoxy)pyridine Dihydrochloride]
176 to 178 °C	CN1CCC[C@@H]1COc1cnc(Cl)c(-c2ccc(Cl)cc2)c1 (as salt: hydrochloride) [Example 76, 5-(4-Clhorophenyl)-6-chloro-3-(1-methyl-2-(R)-pyrrolidinylmethoxy)pyridine Hydrochloride]
208 to 210 °C	Clc1ncc(OC[C@@H]2CCCN2)cc1-c1cccs1 (as salt: hydrochloride) [Example 152, 6-Chloro-3-(2-(S)-pyrrolidinolmethoxy)-5-(2-thienyl)pyridine Dihydrochloride]
214 to 216 °C	C#Cc1cc(OC[C@@H]2CCCN2)cnc1Cl (as salt: hydrochloride) [Example 194, 6-Chloro-5-(ethynyl-3-(2-(S)-pyrrolidinylmethoxy)pyridine Hydrochloride]
196 to 197 °C	COCCOc1cncc(OC[C@@H]2CCCN2C)c1 (as salt: hydrochloride) [Example 198, 5-Methoxyethoxy-3-(1-methyl-(2S)-pyrrolidinylmethoxy)pyridine Dihydrochloride]
85 to 87 °C	Nc1cccc(-c2cncc(OC[C@@H]3CCN3)c2)c1 (as salt: salt) [Example 65, 5-(3-Aminophenyl)-3-(2-(S)-azetidinylmethoxy)pyridine Hidrochloride]
187 to 188 °C	CN1CC[C@H]1COc1cnc(Cl)c(-c2ccccc2)c1 (as salt: salt) [Example 68, 5-Phenyl-6-chloro-3-(1-methyl-2-(S)-azetidinylmethoxy)pyridine Hidrochloride]
178 to 180 °C	Clc1ncc(OC[C@H]2CCCN2)cc1-c1ccccc1 (as salt: salt) [Example 70]
140 to 143 °C	C=Cc1cc(OC[C@@H]2CCN2C)cnc1C (as salt: salt) [Example 196, 5-Ethenyl-6-methyl-3-(1-methyl-2-(S)-azetidinylmethoxy)pyridine]
156 to 158 °C	C=Cc1cc(OC[C@@H]2CCN2C)cnc1F (hydrate or solvate) [Example 204, 5-Ethenyl-6-fluoro-3-(1-methyl-2-(S)-azetidinylmethoxy)pyridine]
152 to 156 °C	C=Cc1cncc(OC[C@@H]2CCCN2C)c1.Cl.Cl [Example 8, 5-Ethenyl-3-(1-methyl-2-(S)-pyrrolidinylmethoxy)pyridine Dihydrochloride]
102 to 105 °C	CCCCCCCCC#Cc1cncc(OC[C@@H]2CCCN2C)c1.Cl.Cl [Example 9, 5-(1-Decynyl)-3-(1-methyl-2-(S)-pyrrolidinylmethoxy)pyridine Dihydrochloride]
180 to 182 °C	Cl.Cl.Clc1ccc(-c2cncc(OC[C@@H]3CCCN3)c2)cc1 [Example 20, 5-(4-chlorophenyl)-3-(2-(S)-pyrrolidinylmethoxy)pyridine Dihydrochloride]
173 to 176 °C	CC(=O)c1cc(OC[C@@H]2CCCN2)cnc1Cl.Cl.Cl [Example 32, 5-Acetyl-6-chloro-3-(2-(S)-pyrrolidinylmethoxy)pyridine Dihydrochloride]
190 to 192 °C	CC(C)(C)C=CC=Cc1cc(OC[C@H]2CCCN2)cnc1Cl.Cl.Cl [Example 77, 5-(5,5-Dimethyl-1,3-hexadienyl)-6-chloro-3-(2-(R)-pyrrolidinylmethoxy)pyridine Dihydrochloride]
194 °C (dec.)	CN1CCC[C@@H]1COc1cnc(Cl)c(C=CC=CC(C)(C)C)c1.Cl.Cl [Example 78, 5-(5,5-Dimethyl-1,3-hexadienyl)-6-chloro-3-(1-methyl-2-(R)-pyrrolidinylmethoxy)pyridine Dihydrochloride]
114 to 116 °C (dec.)	CCCCCCC#Cc1cc(OC[C@H]2CCCN2C)cnc1Cl.Cl.Cl [Example 80, 5-(1-Octynyl)-6-chloro-3-(1-methyl-2-(R)-pyrrolidinylmethoxy)pyridine Dihydrochloride]
236 to 238 °C	CN1CCC[C@@H]1COc1cnc(Cl)c(CCc2ccncc2)c1.Cl.Cl.Cl [Example 83, 5-(2-(4-Pyridinyl)ethyl)-6-chloro-3-(1-methyl-2-(R)-pyrrolidinylmethoxy)pyridine Trihydrochloride]
240 to 242 °C	Cl.Cl.Cl.Nc1cccc(-c2cncc(OC[C@H]3CCCN3)c2)c1 [Example 88, 5-(3-Aminophenyl)-3-(2-(R)-pyrrolidinylmethoxy)pyridine Trihydrochloride]
145 to 147 °C	CC(C)(C)C=CC=Cc1cncc(OC[C@H]2CCCN2)c1.Cl.Cl [Example 138, 5-(5,5-Dimethyl-1,3-hexadienyl)-3-(2-(R)-pyrrolidinylmethoxy)pyridine Dihydrochloride]

SMILES	melting point
Clc1ncc(OC[C@@H]2CCN2)cc1C=Cc1ccncc1 (as salt: citric acid salt) [Example 89, 5-(2-(4-Pyridinyl)ethenyl)-6-chloro-3-(2-(S)-azetidnylmethoxy)pyridine Citric Acid Salt]	195 to 197 °C
CN1CCC[C@H]1COc1cncc(-c2ccco2)c1 (as salt: hydrochloride) [Example 5, 5-(2-Furanyl-3-(1-methyl-2-(S)-pyrrolidinylmethoxy)pyridine Dihydrochloride]	189 to 191 °C
CN1CCC[C@H]1COc1cncc(-c2cccs2)c1 (as salt: hydrochloride) [Example 6, 5-(2-Thienyyl)-3-(1-methyl-2-(S)-pyrrolidinylmethoxy)pyridine Dihydrochloride]	201 to 203 °C
CN1CCC[C@H]1COc1cncc(C=Cc2ccncc2)c1 (as salt: hydrochloride) [Example 13, 5-(2-(4-Pyridinyl)ethenylyl)-3-((1-methyl-2-(S)-pyrrolidinylmethoxy)pyridine Triihydrochloride]	187 to 190 °C
CN1CCC[C@H]1COc1cncc(C#CCCCC#N)c1 (as salt: hydrochloride) [Example 14, (5-(5-Cyano-1-pentynyl-3-(1-methyl-2-(S)-pyrrolidinylmethoxy)pyridine Dihydrochloride]	165 to 167 °C
COC(=O)C=Cc1cncc(OC[C@@H]2CCCN2C)c1 (as salt: hydrochloride) [Example 16, 5-(2-(Methoxycarbonyl)ethenyl-3-(1-methyl-2-(S)-pyrrolidinylmethoxy)pyridine Dihydrochloride]	128 to 130 °C
COC(=O)c1cncc(OC[C@@H]2CCCN2C)c1 (as salt: hydrochloride) [Example 27, 5-Methoxycarbonol-3-(1-methyl-2-(S)-pyrrolidinylmethoxy)pyridine Dihydrochloride]	165 to 167 °C
CN1CCC[C@H]1COc1cncc(CCc2ccncc2)c1 (as salt: hydrochloride) [Example 29, 5-(2-(4-Pyridinnyl)ethyl)-3-(1-methyl-2-(S)-pyrrolidinnylmethoxy)pyridine Trihydrochloride]	148 to 150 °C
CN1CCC[C@H]1COc1cncc(-c2ccc3ccccc3c2)c1 (as salt: hydrochloride) [Example 31, 5-(2-Naphthalenyl-3-(1-methyl-2-(S)-pyrrolidinylmethoxy)pyridine Dihydrochloride]	248 to 251 °C
CN1CCC[C@H]1COc1cncc(-c2cnc3ccccc3c2)c1 (as salt: hydrochloride) [Example 35, 5-(3-Ouinolinyl)-3-(1-methyl-2-(S)-pyrrolidinylmethoxy)pyridine Trihydrochloride]	184 to 186 °C
CN1CCC[C@H]1COc1cncc(-c2cc(C(F)(F)F)cc(C(F)(F)F)c2)c1 (as salt: hydrochloride) [Example 37, 5-(3,5-bis(Trifluoromehyl)phenyl)-3-(1-methyl-2-(S)-pyrrolidinylmethoxy)pyridine Dihydrochloride]	68 to 70 °C
CN1CCC[C@H]1COc1cncc(-c2ccc(F)c(Cl)c2)c1 (as salt: hydrochloride) [Example 42, 5-(3-Chloro-4-fluorolphenyl)-3-(1-methyl-2-(S)-pyrrolidinylmethoxy)pyridine Dihydrochloride]	202 to 204 °C
CN1CCC[C@H]1COc1cnc(Cl)c(C=Cc2ccncc2)c1 (as salt: hydrochloride) [Example 50, 5-(2-(4-Pyridinyl)ethenyl)-6-chloro-3-(1-methyl-(2-(S)-pyrrolidinylmethoxy)pyridine Dihydrochloride]	218 to 222 °C
CN1CCC[C@@H]1COc1cnc(Cl)c(C=Cc2ccncc2)c1 (as salt: hydrochloride) [Example 82, 5-(2-(4-Pyridinnyl)ethenyl)-6-chloro-3-(1-methyl-2-(R)-pyrrolidinylmethoxy)pyridine Dihydrochloride]	220 to 222 °C (dec.)
CC(C)(C)C=CC=Cc1cc(OC[C@@H]2CCCN2)cnc1Cl (as salt: hydrochloride) [Example 148, 6-Chloro-5-(5,5dimethyl-1,3-hexadienyl)-3-(2-(S)-pyrrilidinylmethoxy)pyridine Dihydrochloride]	206 to 208 °C
CC(C)(C)C=CC=Cc1cncc(OC[C@@H]2CCN2)c1 (as salt: hydrochloride) [Example 163, 3-(2-(S)-Azetidinylmethoxy)-5-(5,5-dimethyl-1,3-hexadiene)pyridine Dihydrochloride]	142 to 144 °C
CN1CC[C@H]1COc1cncc(C=CC=CC(C)(C)C)c1 (as salt: hydrochloride) [Example 166, 5-(5,5-Dimethyl-1,3-hexadiene)-3-(1-methyl-2-(S)-azetidinylmethoxy)pyridine Dihydrochloride]	143 to 145 °C
Clc1ncc(OC[C@@H]2CCN2)cc1-c1ccccc1 (as salt: salt) [Example 67, 5-Phenyl-6-chloro-3-(2-(S)-azetidinylmethoxy)pyridine Hidrochloride]	148 to 150 °C
